US7384912B2, “Treatment of bone disorders with skeletal anabolic drugs” (Osteotrophin, LLC, priority 2002, dated 2008)
One block for each substance: values may come before it. No end group written: not given here.

Legend:
[1] = system: ovariectomized (OVX) rats; experiment: Body weight, serum chemistries, kidney calcium and deaths in ovariectomized rats
Experimental: All studies were performed using virus- and antibody-negative female Sprague-Dawley rats from Harlan Sprague-Dawley (Indianapolis, Ind.). All rats underwent sham ovariectomy or ovariectomy at 5 months of age. Studies began at six months of age, one month following ovariectomy or sham operation. Rats were maintained on a diet containing 0.5% calcium and 0.4% phosphorus. The light cycle was 12 hours.
The protocol employed is described in schematic form in Table IV. Animals were randomly assigned to 17 groups of 10 as described in the Table. […] For the peptide-treated animals, the peptide was administered daily, subcutaneously at a dose of 40 μg/kg/day, in the vehicle described above. For vehicle-treated animals, vehicle alone was administered in an identical fashion.
Serum and urine chemistries as described in Table XI were performed using standard autoanalyser methods (Boehringer-Mannheim-Hitachi, Indianapolis, Ind.). Kidney calcium content was determined following extraction of whole kidneys in 5% trichloroacetic acid, followed by calcium measurement by calcium analyzer (Calcette, Midfield, Mass.).

[2] = system: ovariectomized osteopenic rats; details: ovariectomized osteopenic rats (Vickery et al.); cited from earlier work
[3] = target: T1, PTH/PTHrP receptors in canine renal membranes (Canis lupus familiaris, UniProt Q9TU31); experiment: Competition binding to canine renal cortical membranes; details: Scatchard analysis of equilibrium binding data
T1 construct: The renal cortex from adult mongrel dogs was homogenized; from tissue; host or cells: renal cortex of adult mongrel dogs, purified membranes
T1 sequence (Q9TU31 29-595): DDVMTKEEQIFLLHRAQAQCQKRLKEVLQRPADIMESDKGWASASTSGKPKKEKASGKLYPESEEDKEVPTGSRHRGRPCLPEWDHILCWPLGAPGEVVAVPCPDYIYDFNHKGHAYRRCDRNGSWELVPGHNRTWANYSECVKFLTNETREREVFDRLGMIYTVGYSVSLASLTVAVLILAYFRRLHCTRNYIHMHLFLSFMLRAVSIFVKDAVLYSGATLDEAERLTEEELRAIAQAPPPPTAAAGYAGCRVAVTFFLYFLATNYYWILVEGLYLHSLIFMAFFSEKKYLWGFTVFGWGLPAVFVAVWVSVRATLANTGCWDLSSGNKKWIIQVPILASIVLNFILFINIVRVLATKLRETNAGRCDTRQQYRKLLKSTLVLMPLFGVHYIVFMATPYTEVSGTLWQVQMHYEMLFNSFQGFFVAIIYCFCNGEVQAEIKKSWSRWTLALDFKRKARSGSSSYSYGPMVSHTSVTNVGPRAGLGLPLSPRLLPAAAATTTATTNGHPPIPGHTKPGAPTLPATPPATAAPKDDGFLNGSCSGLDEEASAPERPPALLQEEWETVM

[4] = system: adenylate cyclase in SaOS-2 membranes; experiment: Adenylate cyclase assay in SaOS-2 cell membranes; type: biochemical, human; details: 30° C., 30 min
Experimental: (§1) Therefore, dose response curves for each peptide were generated at 30° C. for 10 min in human kidney and 30° C. for 30 min in SaOS-2 membranes. As with the intact cell adenylate cyclase assays, kidney and bone cell membrane adenlyate cyclase assays were performed under binding assay conditions. Results are expresses as percentage of maximal cAMP stimulation in order to compare peptide dose responses from different experiments.
(§2) Statistical differences were assessed by paired and unpaired two-tailed Student's t test.

[5] = system: adenylate cyclase in highly purified canine renal membranes; experiment: Canine renal adenylate cyclase assay under binding assay conditions; type: biochemical; details: 20° C., 20 min, with bacitracin
[6] = system: adenylate cyclase in SaOS-2 intact cells; experiment: Adenylate cyclase assay in SaOS-2 intact cells; type: cell-based, human; details: 15° C., 60 min
Experimental: Adenylate cyclase-stimulating activity was examined in confluent SAOS-2 cells as previously described for ROS 17/2.8 cells (Merendino et al., Science 231:388-390, (1986)), with the following modification. The intact cell assay was conducted at 15° C., the same conditions employed for binding to intact SaOS-2 cells (vide supra). […] Dose response curves for each peptide were thus generated using 60 min incubations at 15° C. under binding assay conditions.
as §2

[7] = system: adenylate cyclase in canine renal cortical membranes (CRCM); experiment: Canine renal cortical membrane adenylate cyclase assay, standard assay; type: biochemical; details: 30 min, 30° C.
[8] = target: T2, adenylate cyclase in human renal cortical membranes (RCM) (Homo sapiens, UniProt Q03431); experiment: Adenylate cyclase assay in human kidney membranes; type: biochemical; details: both membrane preparations (RCM and SaOS-2 membranes)
T2 sequence (Q03431 27-593): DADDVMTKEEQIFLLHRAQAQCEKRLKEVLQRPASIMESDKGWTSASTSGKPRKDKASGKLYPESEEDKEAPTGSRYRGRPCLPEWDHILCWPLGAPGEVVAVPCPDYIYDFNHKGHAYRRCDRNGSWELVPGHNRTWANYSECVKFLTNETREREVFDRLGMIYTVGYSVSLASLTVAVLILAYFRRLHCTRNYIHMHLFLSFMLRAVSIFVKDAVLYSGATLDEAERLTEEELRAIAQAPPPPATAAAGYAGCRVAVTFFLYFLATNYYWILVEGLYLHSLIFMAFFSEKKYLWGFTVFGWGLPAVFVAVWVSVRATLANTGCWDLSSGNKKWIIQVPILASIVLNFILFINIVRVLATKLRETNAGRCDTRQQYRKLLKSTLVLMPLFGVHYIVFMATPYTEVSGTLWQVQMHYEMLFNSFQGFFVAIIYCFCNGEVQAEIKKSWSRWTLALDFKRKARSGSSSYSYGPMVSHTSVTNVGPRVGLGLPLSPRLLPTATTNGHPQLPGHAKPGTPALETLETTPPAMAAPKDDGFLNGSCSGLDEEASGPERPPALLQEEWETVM
Experimental: as §1, §2

Substance: SVSEIQLLHDKGKHLASQERVEWLRKKLQDVHTA [SDZ PTH 893, Leu^8, Asp^10, Lys^11, Ala^16, Gln^18, Thr^33, Ala^34hPTH(1-34)]
treated animals that died during the study ([1]; 30 OVX rats per peptide, 40 μg/kg/day, six month study): 13%
renal calcium content, in words ([1]; rat, in vivo): marked increases in renal calcium content

Substance: [MAP1-10]22-31 hPTHrP-(1-34)NH2
anabolic activity versus parent peptide [2]: greater anabolic activity than the parent peptide

Bmax [3]: 2.73±0.31 pmol/mg protein
Substance: [Nle^8,18,Tyr^34]hPTH-(1-34)amide

EC50 [4]: 0.5 ± 0.06 nM
adenylate cyclase stimulation greater than for PTHrP-(1-36) [5]: 15 fold
EC50 [6]: 1.2 ± 0.1 nM
potency relative to PTHrP-(1-36) [7]: greater than 6 fold
Substance: bovine (b)PTH-(1-34) [bPTH-(1-34)]

EC50 [4]: 0.09 ± 0.03 nM
more potent than hPTHrP-(1-36) in stimulating adenylate cyclase [8]: 10 fold
EC50 [6]: 0.9 ± 0.1 nM
Substance: rat (r)PTH-(1-34) [rPTH-(1-34)]
